Results published in paper PMC4685943 (ACS Chemical Biology, 2015).

How the values were obtained:
DDR2 = target: T1, DDR2 (Homo sapiens, UniProt Q16832); experiment: DDR2 phosphorylation, IP/Western blot in 293T cells expressing wild type DDR2; format: cell-based; conditions: 293T cells expressing wild type DDR2, IP anti-DDR2 / blot 4G10
T1 sequence (Q16832 22-855): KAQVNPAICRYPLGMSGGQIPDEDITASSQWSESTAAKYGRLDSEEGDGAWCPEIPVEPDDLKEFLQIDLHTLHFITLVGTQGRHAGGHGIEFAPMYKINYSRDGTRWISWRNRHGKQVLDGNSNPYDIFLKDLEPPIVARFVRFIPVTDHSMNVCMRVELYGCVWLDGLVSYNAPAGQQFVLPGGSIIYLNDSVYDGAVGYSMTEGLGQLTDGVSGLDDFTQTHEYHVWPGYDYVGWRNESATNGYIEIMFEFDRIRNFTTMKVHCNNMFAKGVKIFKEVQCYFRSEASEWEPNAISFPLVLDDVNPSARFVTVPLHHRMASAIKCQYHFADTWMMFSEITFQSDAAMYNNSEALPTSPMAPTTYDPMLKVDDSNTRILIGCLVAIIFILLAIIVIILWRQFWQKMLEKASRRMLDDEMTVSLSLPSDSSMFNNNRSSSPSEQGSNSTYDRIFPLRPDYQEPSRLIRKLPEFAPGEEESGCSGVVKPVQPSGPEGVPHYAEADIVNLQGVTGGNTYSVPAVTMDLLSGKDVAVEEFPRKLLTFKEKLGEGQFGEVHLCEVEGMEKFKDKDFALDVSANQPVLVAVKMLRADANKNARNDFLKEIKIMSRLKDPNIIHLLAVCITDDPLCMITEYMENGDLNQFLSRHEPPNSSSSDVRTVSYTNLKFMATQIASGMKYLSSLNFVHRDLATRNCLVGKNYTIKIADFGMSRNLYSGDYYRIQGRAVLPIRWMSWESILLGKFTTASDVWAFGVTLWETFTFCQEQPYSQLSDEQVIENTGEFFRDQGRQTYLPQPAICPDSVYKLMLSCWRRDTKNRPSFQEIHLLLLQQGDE

NCI-H2286 and HCC-366 = experiment: Cell proliferation assays in DDR2 mutated cell lines; format: cell-based; conditions: NCI-H2286 and HCC-366, 5 days, single agent

| effect on p-DDR2 (DDR2) | Structure (SMILES) | antiproliferative potency in DDR2 mutated cell lines (NCI-H2286 and HCC-366) |
| --- | --- | --- |
| potent inhibition | Cc1nc(Nc2ncc(C(=O)Nc3c(C)cccc3Cl)s2)cc(N2CCN(CCO)CC2)n1 [Dasatinib] | – |
| – | CN1CCN(CCOc2cc(OC3CCOCC3)c3c(Nc4c(Cl)ccc5c4OCO5)ncnc3c2)CC1 [Saracatinib] | greater inhibition of cell proliferation as compared to compound 1 |
